Measured values: article PMC5596636 (ACS chemical neuroscience, 2016)

Experiments:
mMC3R = mMC3R (Mus musculus, UniProt P33033); assay: cAMP-based β-galactosidase reporter agonist assay in HEK293 cells, mMC3R; settings: for mMC3R fold difference: EC50 of substituted peptide divided by EC50 of NDP-MSH, potency loss
mMC1R [1] = biological target: T1, mMC1R (Mus musculus, UniProt Q01727); settings: B16 murine melanoma cells; relative to α-MSH; cited from earlier work
mMC4R = mMC4R (Mus musculus, UniProt P56450); assay: cAMP-based β-galactosidase reporter agonist assay in HEK293 cells, mMC4R; settings: potency loss
mMC1R [2] = biological target: T1, mMC1R; settings: B16 murine melanoma cells; relative to α-MSH; cited from earlier work; remark: listed apart in the source
mMC1R [3] = biological target: T1, mMC1R; assay: cAMP-based β-galactosidase reporter agonist assay in HEK293 cells, mMC1R; settings: potency loss
rMC3R = settings: HEK293 cells expressing the rMC3R; relative to α-MSH; cited from earlier work
mMC5R = mMC5R (Mus musculus, UniProt P41149); assay: cAMP-based β-galactosidase reporter agonist assay in HEK293 cells, mMC5R; settings: potency loss
[4] = EC50 of substituted peptide divided by EC50 of α-MSH
[5] = EC50 of substituted peptide divided by EC50 of NDP-MSH

T1 sequence (Q01727 whole entry): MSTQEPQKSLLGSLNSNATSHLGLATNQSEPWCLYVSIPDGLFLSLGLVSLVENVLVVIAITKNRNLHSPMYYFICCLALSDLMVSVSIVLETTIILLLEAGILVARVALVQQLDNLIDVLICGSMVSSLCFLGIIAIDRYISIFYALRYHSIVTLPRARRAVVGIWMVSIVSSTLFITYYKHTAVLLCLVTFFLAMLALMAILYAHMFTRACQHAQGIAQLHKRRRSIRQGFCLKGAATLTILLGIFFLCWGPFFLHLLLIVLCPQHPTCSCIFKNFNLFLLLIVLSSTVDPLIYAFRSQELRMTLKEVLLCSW
Chain of mMC5R (P41149 whole entry): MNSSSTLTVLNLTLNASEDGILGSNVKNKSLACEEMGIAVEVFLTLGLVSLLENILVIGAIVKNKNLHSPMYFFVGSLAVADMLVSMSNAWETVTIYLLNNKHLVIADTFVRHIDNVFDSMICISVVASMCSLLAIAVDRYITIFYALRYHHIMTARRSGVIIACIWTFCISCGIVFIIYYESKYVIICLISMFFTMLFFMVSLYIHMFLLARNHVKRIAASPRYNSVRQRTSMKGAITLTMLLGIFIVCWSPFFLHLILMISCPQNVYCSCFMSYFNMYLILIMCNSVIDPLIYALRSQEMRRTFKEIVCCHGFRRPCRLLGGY
Chain of mMC3R (P33033 whole entry): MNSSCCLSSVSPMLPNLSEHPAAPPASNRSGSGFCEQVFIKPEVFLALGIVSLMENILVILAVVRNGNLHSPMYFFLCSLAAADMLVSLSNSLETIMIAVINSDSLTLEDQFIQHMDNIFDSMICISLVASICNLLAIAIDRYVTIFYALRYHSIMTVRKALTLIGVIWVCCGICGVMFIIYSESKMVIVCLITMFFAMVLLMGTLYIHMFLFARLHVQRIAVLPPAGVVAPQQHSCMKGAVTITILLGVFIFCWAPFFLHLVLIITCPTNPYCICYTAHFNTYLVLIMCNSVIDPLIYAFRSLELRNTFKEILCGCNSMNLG
Chain of mMC4R (P56450 whole entry): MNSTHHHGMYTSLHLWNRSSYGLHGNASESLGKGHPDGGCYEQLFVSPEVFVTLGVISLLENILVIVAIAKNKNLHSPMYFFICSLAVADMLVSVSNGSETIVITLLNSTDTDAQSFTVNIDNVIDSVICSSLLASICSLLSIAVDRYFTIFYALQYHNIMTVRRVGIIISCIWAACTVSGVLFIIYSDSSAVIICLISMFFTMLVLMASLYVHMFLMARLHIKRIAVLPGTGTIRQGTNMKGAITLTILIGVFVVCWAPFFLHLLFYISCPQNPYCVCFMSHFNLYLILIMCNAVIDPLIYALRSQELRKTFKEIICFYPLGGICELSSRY

Compound	EC50 (mMC3R) [pM]	mMC4R fold difference (mMC4R; [5])	mMC1R fold difference (mMC1R [3]; [5])	mMC3R fold difference (mMC3R)	mMC5R fold difference (mMC5R; [5])	other results
CCCC[C@H](NC(=O)[C@H](CO)NC(=O)[C@H](Cc1ccc(O)cc1)NC(=O)[C@H](C)NC(C)=O)C(=O)N[C@@H](CCC(=O)O)C(=O)N[C@@H](Cc1c[nH]cn1)C(=O)N[C@H](Cc1ccccc1)C(=O)N[C@@H](CCCNC(=N)N)C(=O)N[C@@H](Cc1c[nH]c2ccccc12)C(=O)NCC(=O)N[C@@H](CCCCN)C(=O)N1CCC[C@H]1C(=O)N[C@H](C(N)=O)C(C)C [[Ala^1]NDP-MSH, Ac-Ala-Tyr-Ser-Nle-Glu-His-DPhe-Arg-Trp-Gly-Lys-Pro-Val-NH2]	160 ± 17	–	–	–	–	–
CSCC[C@H](NC(=O)[C@H](CO)NC(=O)[C@H](Cc1ccc(O)cc1)NC(=O)[C@H](C)NC(C)=O)C(=O)N[C@@H](CCC(=O)O)C(=O)N[C@@H](Cc1c[nH]cn1)C(=O)N[C@@H](Cc1ccccc1)C(=O)N[C@@H](CCCNC(=N)N)C(=O)N[C@@H](Cc1c[nH]c2ccccc12)C(=O)NCC(=O)N[C@@H](CCCCN)C(=O)N1CCC[C@H]1C(=O)N[C@H](C(N)=O)C(C)C [[Ala^1]α-MSH]	17400 ± 10400	–	–	–	–	fold decreased tyrosinase potency at the mMC1R (mMC1R [1]): did not affect; mMC4R fold difference (mMC4R; [4]): no differences; fold decreased binding affinity at the mMC1R (mMC1R [2]): did not affect; mMC1R fold difference (mMC1R [3]; [4]): 5 fold; fold decreased binding affinity at the rMC3R (rMC3R): did not affect; mMC5R fold difference (mMC5R; [4]): no differences
CCCC[C@H](NC(=O)[C@H](CO)NC(=O)[C@H](C)NC(=O)[C@H](CO)NC(C)=O)C(=O)N[C@@H](CCC(=O)O)C(=O)N[C@@H](Cc1c[nH]cn1)C(=O)N[C@H](Cc1ccccc1)C(=O)N[C@@H](CCCNC(=N)N)C(=O)N[C@@H](Cc1c[nH]c2ccccc12)C(=O)NCC(=O)N[C@@H](CCCCN)C(=O)N1CCC[C@H]1C(=O)N[C@H](C(N)=O)C(C)C [[Ala^2]NDP-MSH, Ac-Ser-Ala-Ser-Nle-Glu-His-DPhe-Arg-Trp-Gly-Lys-Pro-Val-NH2]	220 ± 60	–	–	–	–	–
CSCC[C@H](NC(=O)[C@H](CO)NC(=O)[C@H](C)NC(=O)[C@H](CO)NC(C)=O)C(=O)N[C@@H](CCC(=O)O)C(=O)N[C@@H](Cc1c[nH]cn1)C(=O)N[C@@H](Cc1ccccc1)C(=O)N[C@@H](CCCNC(=N)N)C(=O)N[C@@H](Cc1c[nH]c2ccccc12)C(=O)NCC(=O)N[C@@H](CCCCN)C(=O)N1CCC[C@H]1C(=O)N[C@H](C(N)=O)C(C)C [[Ala^2]α-MSH]	6420 ± 2560	–	–	–	–	fold decreased tyrosinase potency at the mMC1R (mMC1R [1]): equipotent; fold decreased binding affinity at the mMC1R (mMC1R [2]): equipotent; mMC1R fold difference (mMC1R [3]; [4]): 7 fold; fold more potent at the mMC3R compared to α-MSH (mMC3R; increased potency relative to α-MSH): 4 fold; fold decreased binding affinity at the rMC3R (rMC3R): 7 fold
CCCC[C@H](NC(=O)[C@H](C)NC(=O)[C@H](Cc1ccc(O)cc1)NC(=O)[C@H](CO)NC(C)=O)C(=O)N[C@@H](CCC(=O)O)C(=O)N[C@@H](Cc1c[nH]cn1)C(=O)N[C@H](Cc1ccccc1)C(=O)N[C@@H](CCCNC(=N)N)C(=O)N[C@@H](Cc1c[nH]c2ccccc12)C(=O)NCC(=O)N[C@@H](CCCCN)C(=O)N1CCC[C@H]1C(=O)N[C@H](C(N)=O)C(C)C [[Ala^3]NDP-MSH, Ac-Ser-Tyr-Ala-Nle-Glu-His-DPhe-Arg-Trp-Gly-Lys-Pro-Val-NH2]	340 ± 80	–	–	–	–	–
CC(=O)N[C@@H](CO)C(=O)N[C@@H](Cc1ccc(O)cc1)C(=O)N[C@@H](CO)C(=O)N[C@@H](C)C(=O)N[C@@H](CCC(=O)O)C(=O)N[C@@H](Cc1c[nH]cn1)C(=O)N[C@H](Cc1ccccc1)C(=O)N[C@@H](CCCNC(=N)N)C(=O)N[C@@H](Cc1c[nH]c2ccccc12)C(=O)NCC(=O)N[C@@H](CCCCN)C(=O)N1CCC[C@H]1C(=O)N[C@H](C(N)=O)C(C)C [[Ala^4]NDP-MSH, Ac-Ser-Tyr-Ser-Ala-Glu-His-DPhe-Arg-Trp-Gly-Lys-Pro-Val-NH2]	360 ± 40	no differences	5 fold	no differences	no differences	–
CCCC[C@H](NC(=O)[C@H](CO)NC(=O)[C@H](Cc1ccc(O)cc1)NC(=O)[C@H](CO)NC(C)=O)C(=O)N[C@@H](CCC(=O)O)C(=O)N[C@@H](Cc1c[nH]cn1)C(=O)N[C@@H](C)C(=O)N[C@@H](CCCNC(=N)N)C(=O)N[C@@H](Cc1c[nH]c2ccccc12)C(=O)NCC(=O)N[C@@H](CCCCN)C(=O)N1CCC[C@H]1C(=O)N[C@H](C(N)=O)C(C)C [[Ala^7]NDP-MSH]	260000 ± 64000	2370 fold	2350 fold	1080 fold	180 fold	–
CCCC[C@H](NC(=O)[C@H](CO)NC(=O)[C@H](Cc1ccc(O)cc1)NC(=O)[C@H](CO)NC(C)=O)C(=O)N[C@@H](CCC(=O)O)C(=O)N[C@@H](Cc1c[nH]cn1)C(=O)N[C@H](Cc1ccccc1)C(=O)N[C@@H](CCCNC(=N)N)C(=O)N[C@@H](Cc1c[nH]c2ccccc12)C(=O)N[C@@H](C)C(=O)N[C@@H](CCCCN)C(=O)N1CCC[C@H]1C(=O)N[C@H](C(N)=O)C(C)C [[Ala^10]NDP-MSH, Ac-Ser-Tyr-Ser-Nle-Glu-His-DPhe-Arg-Trp-Ala-Lys-Pro-Val-NH2]	130 ± 60	unaltered	unaltered	unaltered	unaltered	–
CSCC[C@H](NC(=O)[C@H](CO)NC(=O)[C@H](Cc1ccc(O)cc1)NC(=O)[C@H](CO)NC(C)=O)C(=O)N[C@@H](CCC(=O)O)C(=O)N[C@@H](Cc1c[nH]cn1)C(=O)N[C@@H](Cc1ccccc1)C(=O)N[C@@H](CCCNC(=N)N)C(=O)N[C@@H](Cc1c[nH]c2ccccc12)C(=O)N[C@@H](C)C(=O)N[C@@H](CCCCN)C(=O)N1CCC[C@H]1C(=O)N[C@H](C(N)=O)C(C)C [[Ala^10]α-MSH]	33000 ± 11000	–	–	–	–	–
CCCC[C@H](NC(=O)[C@H](CO)NC(=O)[C@H](Cc1ccc(O)cc1)NC(=O)[C@H](CO)NC(C)=O)C(=O)N[C@@H](CCC(=O)O)C(=O)N[C@@H](Cc1c[nH]cn1)C(=O)N[C@H](Cc1ccccc1)C(=O)N[C@@H](CCCNC(=N)N)C(=O)N[C@@H](Cc1c[nH]c2ccccc12)C(=O)NCC(=O)N[C@@H](C)C(=O)N1CCC[C@H]1C(=O)N[C@H](C(N)=O)C(C)C [[Ala^11]NDP-MSH, Ac-Ser-Tyr-Ser-Nle-Glu-His-DPhe-Arg-Trp-Gly-Ala-Pro-Val-NH2]	170 ± 20	unaltered	unaltered	unaltered	unaltered	–
CSCC[C@H](NC(=O)[C@H](CO)NC(=O)[C@H](Cc1ccc(O)cc1)NC(=O)[C@H](CO)NC(C)=O)C(=O)N[C@@H](CCC(=O)O)C(=O)N[C@@H](Cc1c[nH]cn1)C(=O)N[C@@H](Cc1ccccc1)C(=O)N[C@@H](CCCNC(=N)N)C(=O)N[C@@H](Cc1c[nH]c2ccccc12)C(=O)NCC(=O)N[C@@H](C)C(=O)N1CCC[C@H]1C(=O)N[C@H](C(N)=O)C(C)C [[Ala^11]α-MSH]	49000 ± 33000	–	–	–	–	–
CCCC[C@H](NC(=O)[C@H](CO)NC(=O)[C@H](Cc1ccc(O)cc1)NC(=O)[C@H](CO)NC(C)=O)C(=O)N[C@@H](CCC(=O)O)C(=O)N[C@@H](Cc1c[nH]cn1)C(=O)N[C@H](Cc1ccccc1)C(=O)N[C@@H](CCCNC(=N)N)C(=O)N[C@@H](Cc1c[nH]c2ccccc12)C(=O)NCC(=O)N[C@@H](CCCCN)C(=O)N[C@@H](C)C(=O)N[C@H](C(N)=O)C(C)C [[Ala^12]NDP-MSH, Ac-Ser-Tyr-Ser-Nle-Glu-His-DPhe-Arg-Trp-Gly-Lys-Ala-Val-NH2]	360 ± 60	5 fold	4 fold	–	–	–
CSCC[C@H](NC(=O)[C@H](CO)NC(=O)[C@H](Cc1ccc(O)cc1)NC(=O)[C@H](CO)NC(C)=O)C(=O)N[C@@H](CCC(=O)O)C(=O)N[C@@H](Cc1c[nH]cn1)C(=O)N[C@@H](Cc1ccccc1)C(=O)N[C@@H](CCCNC(=N)N)C(=O)N[C@@H](Cc1c[nH]c2ccccc12)C(=O)NCC(=O)N[C@@H](CCCCN)C(=O)N[C@@H](C)C(=O)N[C@H](C(N)=O)C(C)C [[Ala^12]α-MSH]	43000 ± 14000	–	–	–	–	fold decreased binding affinity at the mMC1R (mMC1R [2]): 10 fold
CCCC[C@H](NC(=O)[C@H](CO)NC(=O)[C@H](Cc1ccc(O)cc1)NC(=O)[C@H](CO)NC(C)=O)C(=O)N[C@@H](CCC(=O)O)C(=O)N[C@@H](Cc1c[nH]cn1)C(=O)N[C@H](Cc1ccccc1)C(=O)N[C@@H](CCCNC(=N)N)C(=O)N[C@@H](Cc1c[nH]c2ccccc12)C(=O)NCC(=O)N[C@@H](CCCCN)C(=O)N1CCC[C@H]1C(=O)N[C@@H](C)C(N)=O [[Ala^13]NDP-MSH, Ac-Ser-Tyr-Ser-Nle-Glu-His-DPhe-Arg-Trp-Gly-Lys-Pro-Ala-NH2]	300 ± 60	unaltered	unaltered	unaltered	unaltered	–
CSCC[C@H](NC(=O)[C@H](CO)NC(=O)[C@H](Cc1ccc(O)cc1)NC(=O)[C@H](CO)NC(C)=O)C(=O)N[C@@H](CCC(=O)O)C(=O)N[C@@H](Cc1c[nH]cn1)C(=O)N[C@@H](Cc1ccccc1)C(=O)N[C@@H](CCCNC(=N)N)C(=O)N[C@@H](Cc1c[nH]c2ccccc12)C(=O)NCC(=O)N[C@@H](CCCCN)C(=O)N1CCC[C@H]1C(=O)N[C@@H](C)C(N)=O [[Ala^13]α-MSH]	42000 ± 26000	–	–	–	–	–
